Assay results from ChEMBL document CHEMBL1201862, “PubChem BioAssay data set” (2004).
Active and inactive are the calls of the source.

What was measured:
[1] = reduction of Shn3 3'UTR-driven luciferase in osteoblasts – cell-based, Clone20 osteoblasts, firefly luciferase, cherry-picked, dose response (AID 624132); type: functional;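 further: firefly luciferase luminescence from reporter carrying the Shn3 3'UTR in osteoblasts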
INS1 = test: INS-1E survival protection against cytokine death – cell-based, luminescence, retest, dose response (AID 449756); type: functional; settings: Rattus norvegicus;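 further: cell death triggered by IL-1 beta plus TNF-alpha plus IFN-gamma mixture; protective hits raise ATP signal compared with cytokine alone wells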
[2] = loss of viability in HepG2 cells – cell-based, CellTiter-Glo, cherry-picked, cytotoxicity control for Shn3 inhibitor project, dose response (AID 624134); type: functional
[3] = non-specific 3'UTR reporter inhibition in Clone20-Shn3RL – cell-based, Renilla luciferase, cherry-picked, counter-screen for Shn3 inhibitor project, dose response (AID 624133); type: functional
Cytochrome P450 2D6 = Cytochrome P450 2D6 (Homo sapiens, UniProt P10635);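 further: CYP2D6 member of a cytochrome P450 panel assay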
Chain of Cytochrome P450 2D6 (P10635 whole entry): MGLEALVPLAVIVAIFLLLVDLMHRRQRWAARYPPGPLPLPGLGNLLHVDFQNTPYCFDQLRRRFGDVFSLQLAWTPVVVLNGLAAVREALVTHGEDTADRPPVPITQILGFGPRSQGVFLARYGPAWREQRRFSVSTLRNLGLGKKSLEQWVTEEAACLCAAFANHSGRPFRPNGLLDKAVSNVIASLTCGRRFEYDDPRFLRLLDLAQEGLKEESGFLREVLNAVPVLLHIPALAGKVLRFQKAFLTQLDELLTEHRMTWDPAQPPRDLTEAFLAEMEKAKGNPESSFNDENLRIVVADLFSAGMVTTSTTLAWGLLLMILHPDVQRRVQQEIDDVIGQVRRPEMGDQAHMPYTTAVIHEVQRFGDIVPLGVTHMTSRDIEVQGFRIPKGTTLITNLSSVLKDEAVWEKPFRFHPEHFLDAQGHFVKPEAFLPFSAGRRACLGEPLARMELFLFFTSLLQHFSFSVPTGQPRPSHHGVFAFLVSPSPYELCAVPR

H9c2 = test: cells; type: functional, cell-based; settings: Rattus norvegicus, H9c2, Myocardium;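 further: confirmatory concentration-response retest of ultra-high-throughput screening hits for modulation of myocardial damage; cell death induced by hydrogen peroxide oxidative stress; compound pretreatment for 60 min then peroxide exposure for 2 h; potency is for protecting the cells against peroxide damage rather than for killing them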
[4] = molecular target: T1, Corticotropin-releasing factor receptor 2/Corticotropin-releasing factor-binding protein (Homo sapiens, UniProt P24387+Q13324); test: activators of CRF receptor 2 with binding protein – uHTS hits, confirmation (AID 602473); type: functional; settings: read-out: EC50_Mean
T1 sequence (Q13324 whole entry): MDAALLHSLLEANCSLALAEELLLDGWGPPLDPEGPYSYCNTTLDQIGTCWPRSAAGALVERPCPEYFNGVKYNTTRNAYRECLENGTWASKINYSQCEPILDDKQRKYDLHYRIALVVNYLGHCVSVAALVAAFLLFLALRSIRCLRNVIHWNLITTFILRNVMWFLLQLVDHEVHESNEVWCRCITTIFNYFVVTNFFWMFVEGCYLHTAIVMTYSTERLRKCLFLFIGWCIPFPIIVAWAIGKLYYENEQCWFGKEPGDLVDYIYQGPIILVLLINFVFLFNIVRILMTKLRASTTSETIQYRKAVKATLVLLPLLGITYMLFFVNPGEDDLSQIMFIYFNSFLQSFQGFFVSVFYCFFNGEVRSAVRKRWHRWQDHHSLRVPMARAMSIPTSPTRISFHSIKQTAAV
T1 sequence (P24387 whole entry): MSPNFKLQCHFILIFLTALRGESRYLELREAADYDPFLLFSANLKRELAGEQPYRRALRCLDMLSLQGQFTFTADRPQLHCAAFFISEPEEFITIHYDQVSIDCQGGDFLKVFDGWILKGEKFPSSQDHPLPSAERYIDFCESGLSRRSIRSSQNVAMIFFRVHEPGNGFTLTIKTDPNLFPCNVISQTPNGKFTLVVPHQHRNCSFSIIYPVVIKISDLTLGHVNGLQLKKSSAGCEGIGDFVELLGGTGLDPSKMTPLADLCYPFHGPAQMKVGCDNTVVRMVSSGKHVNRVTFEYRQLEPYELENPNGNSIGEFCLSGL

[5] = molecular target: T1, Corticotropin-releasing factor receptor 2/Corticotropin-releasing factor-binding protein; test: Dose Response confirmation of uHTS hits for small molecule antagonists of the CRF-binding protein and CRF-R2 receptor complex.; type: functional; settings: read-out: IC50_Mean
Cytochrome P450 3A4 = Cytochrome P450 3A4 (Homo sapiens, UniProt P08684);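 further: CYP3A4 tested as one member of a cytochrome P450 panel screen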
Chain of Cytochrome P450 3A4 (P08684 whole entry): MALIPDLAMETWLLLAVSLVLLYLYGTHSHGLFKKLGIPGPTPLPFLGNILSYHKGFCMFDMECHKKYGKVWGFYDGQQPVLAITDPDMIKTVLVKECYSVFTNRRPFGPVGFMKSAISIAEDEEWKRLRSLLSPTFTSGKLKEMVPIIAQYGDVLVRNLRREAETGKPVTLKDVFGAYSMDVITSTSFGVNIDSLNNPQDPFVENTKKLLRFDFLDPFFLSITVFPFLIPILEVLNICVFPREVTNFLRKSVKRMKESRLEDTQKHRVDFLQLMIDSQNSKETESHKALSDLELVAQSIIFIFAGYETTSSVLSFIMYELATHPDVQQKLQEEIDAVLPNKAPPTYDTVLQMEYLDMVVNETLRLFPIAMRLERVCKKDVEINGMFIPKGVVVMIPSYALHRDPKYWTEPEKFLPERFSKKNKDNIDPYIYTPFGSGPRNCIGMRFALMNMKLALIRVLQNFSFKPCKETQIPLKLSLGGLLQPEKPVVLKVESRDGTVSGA

Cytochrome P450 2C19 = Cytochrome P450 2C19 (Homo sapiens, UniProt P33261); test: Cytochrome panel assay with activity outcomes. Panel member name: p450-cyp2c19 Compounds with AC50 equal or less than 10 uM are considered active; type: functional; settings: read-out: AC50
Chain of Cytochrome P450 2C19 (P33261 whole entry): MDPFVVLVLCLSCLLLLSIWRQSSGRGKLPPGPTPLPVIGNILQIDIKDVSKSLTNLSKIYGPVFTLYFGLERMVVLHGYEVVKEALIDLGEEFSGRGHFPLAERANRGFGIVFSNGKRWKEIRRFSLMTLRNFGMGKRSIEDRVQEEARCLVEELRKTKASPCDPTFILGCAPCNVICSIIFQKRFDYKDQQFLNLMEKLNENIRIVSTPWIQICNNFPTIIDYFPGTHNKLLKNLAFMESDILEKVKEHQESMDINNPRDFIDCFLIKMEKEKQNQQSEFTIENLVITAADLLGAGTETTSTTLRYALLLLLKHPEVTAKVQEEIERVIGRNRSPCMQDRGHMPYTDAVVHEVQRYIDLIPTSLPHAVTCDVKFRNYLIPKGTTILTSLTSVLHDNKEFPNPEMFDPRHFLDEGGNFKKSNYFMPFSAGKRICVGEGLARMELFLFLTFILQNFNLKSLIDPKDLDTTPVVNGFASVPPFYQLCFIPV

[6] = NIH3T3 cell viability loss – ATP luminescence, mouse fibroblasts, counter-screen, dose response (AID 2010); type: functional, cell-based;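 further: cells exposed to compound for about 90 hours before reading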
[7] = Trypanosoma cruzi growth suppression in host cells – NIH3T3 host cells, beta-gal luminescence, confirmation (AID 2044); type: functional, cell-based;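 further: intracellular parasites grown in NIH/3T3 mouse fibroblasts as host cells; luminescent beta-galactosidase reporter signal from transgenic T. cruzi replicating inside host cells; inhibitors lower the luminescence signal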
Cytochrome P450 1A2 = molecular target: T2, Cytochrome P450 1A2 (Homo sapiens, UniProt P05177);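 further: PubChem cytochrome P450 panel assay, CYP1A2 panel member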
T2 sequence (P05177 whole entry): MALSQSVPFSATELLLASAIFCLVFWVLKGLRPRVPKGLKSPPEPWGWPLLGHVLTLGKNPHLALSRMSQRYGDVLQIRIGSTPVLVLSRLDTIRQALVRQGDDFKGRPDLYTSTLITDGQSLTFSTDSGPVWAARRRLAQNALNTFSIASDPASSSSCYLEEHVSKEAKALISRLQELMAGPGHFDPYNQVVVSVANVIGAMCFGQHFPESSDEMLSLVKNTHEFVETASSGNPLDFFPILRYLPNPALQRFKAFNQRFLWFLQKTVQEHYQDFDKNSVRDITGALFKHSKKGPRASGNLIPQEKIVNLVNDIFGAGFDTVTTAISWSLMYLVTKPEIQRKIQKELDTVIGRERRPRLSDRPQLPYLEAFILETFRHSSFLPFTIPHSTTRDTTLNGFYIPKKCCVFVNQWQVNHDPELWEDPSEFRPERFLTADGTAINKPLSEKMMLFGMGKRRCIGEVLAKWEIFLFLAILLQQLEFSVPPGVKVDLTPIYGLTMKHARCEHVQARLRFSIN

BJ [8] = test: BJ-TERT-LT-ST fibroblast viability loss – cell-based, RAS-independent, luminescence, dose response (AID 1935); type: functional, Homo sapiens; settings: Homo sapiens, BJ;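 further: BJ fibroblasts immortalized with TERT plus LT and ST oncogenes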
[9] = DRD fibroblast viability loss – cell-based, non-viral oncogenic, luminescence, dose response (AID 1934); type: functional; settings: Homo sapiens
BJ [10] = test: cells; type: functional, cell-based, Homo sapiens; settings: Homo sapiens, BJ
BJ [11] = test: BJ-TERT fibroblast viability loss – cell-based, RAS-independent, luminescence, dose response (AID 1933); type: functional, Homo sapiens; settings: Homo sapiens, BJ
Streptokinase A = molecular target: T3, Streptokinase A (Streptococcus pyogenes serotype M1, UniProt P10520); test: viability-normalized secreted streptokinase activity reduction – plasminogen activation absorbance, OD405, dose response (AID 1914); type: functional, Streptococcus pyogenes M1 GAS;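 further: secreted streptokinase activity via plasminogen activation per viability signal from cell pellet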
T3 sequence (P10520 whole entry): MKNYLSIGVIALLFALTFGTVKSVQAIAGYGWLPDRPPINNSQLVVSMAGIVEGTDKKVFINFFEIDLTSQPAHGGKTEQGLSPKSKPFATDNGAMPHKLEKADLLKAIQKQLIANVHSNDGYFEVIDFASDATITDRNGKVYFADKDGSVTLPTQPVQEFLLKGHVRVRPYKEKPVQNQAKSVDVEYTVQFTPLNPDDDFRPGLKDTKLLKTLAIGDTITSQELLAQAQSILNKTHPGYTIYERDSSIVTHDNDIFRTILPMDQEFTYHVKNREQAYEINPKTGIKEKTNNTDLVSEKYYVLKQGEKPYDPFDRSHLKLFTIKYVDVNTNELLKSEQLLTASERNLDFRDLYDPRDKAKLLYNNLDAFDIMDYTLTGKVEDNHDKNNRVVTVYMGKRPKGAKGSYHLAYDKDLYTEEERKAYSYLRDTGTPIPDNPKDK

[12] = tested on: Streptococcus sp. 'group A'; test: Streptococcus pyogenes SK(-)GAS viability under kanamycin – luminescence, BacTiterGlo, confirmation, counter-screen for streptokinase expression inhibitor project, dose response (AID 1900); type: functional, organism-based
Streptococcus = test: GAS UMAA2166 growth inhibition – luminescence, BacTiterGlo, counter-screen for streptokinase expression inhibitor project, dose response (AID 1915); type: functional, organism-based;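 further: potency for reduction of bacterial viability or growth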
Cytochrome P450 2C9 = Cytochrome P450 2C9 (Homo sapiens, UniProt P11712)
Chain of Cytochrome P450 2C9 (P11712 whole entry): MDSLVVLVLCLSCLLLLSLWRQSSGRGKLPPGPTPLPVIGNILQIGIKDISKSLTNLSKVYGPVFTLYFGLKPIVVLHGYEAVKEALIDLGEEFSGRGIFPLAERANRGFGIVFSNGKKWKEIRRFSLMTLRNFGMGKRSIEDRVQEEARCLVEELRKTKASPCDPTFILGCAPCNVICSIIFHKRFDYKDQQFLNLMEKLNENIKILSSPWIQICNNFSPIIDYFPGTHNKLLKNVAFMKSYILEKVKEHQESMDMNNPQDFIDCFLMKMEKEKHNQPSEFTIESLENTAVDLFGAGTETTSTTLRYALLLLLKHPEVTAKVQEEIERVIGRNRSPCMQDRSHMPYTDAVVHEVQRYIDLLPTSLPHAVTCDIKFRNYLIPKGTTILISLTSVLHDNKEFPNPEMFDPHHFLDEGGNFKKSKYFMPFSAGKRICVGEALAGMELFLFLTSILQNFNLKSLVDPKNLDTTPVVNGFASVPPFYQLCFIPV

With `COCCN(C(=O)COC(=O)C1CCC(C(C)(C)C)CC1)c1c(N)n(Cc2ccccc2)c(=O)[nH]c1=O` (centres undefined) the AC50 [1] was 5.15 µM (active), the AC50 (INS1) was 2.34 µM (active) and the AC50 [2] was 43.1 µM (active). For the same compound, the AC50 [3] was 4.83 µM (active).

For `COC(=O)[C@@]1(Cc2ccccc2)[C@H]2c3cc(C(=O)N4CCCC4)n(Cc4ccc(OC)c(OC)c4)c3C[C@H]2CN1C(=O)c1ccccc1`, the AC50 (Cytochrome P450 2D6) was 31.6 µM (inconclusive).

In the case of `CCC(=O)c1ccc(OCC(O)Cn2c(C)nc3ccccc32)cc1` (centres undefined), the AC50 [1] is reported as 2.28 µM (active), the AC50 [2] is reported as 49.9 µM (active) and the AC50 [3] is reported as 14.1 µM (active).

In the case of `Cc1sc2nc(SCC(=O)N(C)C)nc(O)c2c1C`, the IC50 (H9c2) is reported as 22.3 µM (active).

With `CCN1C(=O)/C(=C\C=C\c2ccccc2[N+](=O)[O-])SC1=S` the EC50 [4] was > 53 µM (inactive) and the IC50 [5] was > 47.1 µM (inactive).

For `CCC(C)N1C(=O)S/C(=C/c2ccc3c(c2)n(C)c(=O)n3C)C1=O` (centres undefined), the IC50 (H9c2) was > 79 µM (inactive).

For `NCCSc1nc2ccccc2s1`, the AC50 (Cytochrome P450 2D6) was 3.98 µM (inconclusive).

For `CN(C)c1ccc(-c2nc(NCCN3CCOCC3)c3ccccc3n2)cc1`, the AC50 (Cytochrome P450 3A4) was 12.6 µM (inconclusive), the AC50 (Cytochrome P450 2D6) was 25.1 µM (inconclusive) and the AC50 (Cytochrome P450 2C19) was 39.8 µM (inconclusive).

In the case of `FC(F)Sc1ccc(NC2=NN=C(c3ccc4c(c3)OCCO4)CS2)cc1`, the AC50 (INS1) is reported as 4.4 µM (active), the EC50 [6] is reported as 6.72 µM (active) and the EC50 [7] is reported as 1.99 µM (active). The AC50 (Cytochrome P450 2D6) was 14.1 µM (inconclusive) and the AC50 (Cytochrome P450 1A2) was 35.5 µM (inconclusive).

With `O=C(Cc1cccs1)Nc1nc2c(ccc3ccccc32)s1` the EC50 [4] was > 53 µM (inactive) and the IC50 [5] was > 47.1 µM (inactive).

For `Oc1ccc(N=Nc2ccc3c(c2)OCO3)c2ccccc12`, the EC50 (BJ [8]) was 6.46 µM (inconclusive), the EC50 [9] was 19.4 µM (inconclusive) and the EC50 (BJ [10]) was 10.9 µM (active). The EC50 (BJ [11]) was 2.85 µM (active).

With `CC(C)CCN(C(=O)CNC(=O)c1ccco1)C(C(=O)NC1CCCCC1)c1ccco1` (centres undefined) the IC50 (H9c2) was 17.4 µM (active).

With `CCOc1ccc(C(=O)NC(=S)N(Cc2ccccc2)Cc2ccccc2)cc1` the EC50 (Streptokinase A) was > 150 µM (not active), the EC50 [12] was 2.46 µM (active) and the EC50 (Streptococcus) was 7.11 µM (active). For the same compound, the AC50 (Cytochrome P450 2D6) was 6.31 µM (inconclusive).

With `Cc1ccc(C(=O)OCC(=O)c2cc(C)n(CC3CCCO3)c2C)cc1` (centres undefined) the EC50 [4] was > 53 µM (inactive) and the IC50 [5] was > 47.1 µM (inactive).

With `COCCOC(=O)N/C=C\c1nc(O)c2ccccc2n1` the IC50 (H9c2) was > 79 µM (inactive).

With `CN(Cc1ccco1)c1ncnc2ccc(-c3cccc(C#N)c3)cc12` the AC50 (Cytochrome P450 3A4) was 31.6 µM (inconclusive), the AC50 (Cytochrome P450 2C9) was 1.58 µM (inconclusive) and the AC50 (Cytochrome P450 2D6) was 25.1 µM (inconclusive).

In the case of `CC(C)c1ccccc1-n1c(SCC(=O)N2CCc3ccccc3C2)nc2ccccc2c1=O`, the AC50 [1] is reported as 2.99 µM (active), the AC50 (INS1) is reported as 2.44 µM (active) and the AC50 [2] is reported as 55.4 µM (active). For the same compound, the AC50 [3] was 3.83 µM (active).

In the case of `COc1cccc(C(=O)N(Cc2ccccc2)Cc2cc3cc4c(cc3nc2O)OCCO4)c1`, the AC50 (Cytochrome P450 2D6) is reported as 0.224 µM (inconclusive).

In the case of `COc1cc(C(=O)Nc2ccc(NC(=O)c3cccc(Cl)c3)nc2)cc(OC)c1OC`, the IC50 (H9c2) is reported as 8.67 µM (active).
